For orientation: EC50 means the concentration needed to bring the measured effect to its halfway point. For orientation: IC50 means the midpoint of a concentration-inhibition curve. A word on the AC50: it is the concentration at which the activity in the assay is half-maximal.

Assay [1] concerns the target T1, Estrogen receptor (Homo sapiens, UniProt P03372).
T1 sequence (P03372 whole entry): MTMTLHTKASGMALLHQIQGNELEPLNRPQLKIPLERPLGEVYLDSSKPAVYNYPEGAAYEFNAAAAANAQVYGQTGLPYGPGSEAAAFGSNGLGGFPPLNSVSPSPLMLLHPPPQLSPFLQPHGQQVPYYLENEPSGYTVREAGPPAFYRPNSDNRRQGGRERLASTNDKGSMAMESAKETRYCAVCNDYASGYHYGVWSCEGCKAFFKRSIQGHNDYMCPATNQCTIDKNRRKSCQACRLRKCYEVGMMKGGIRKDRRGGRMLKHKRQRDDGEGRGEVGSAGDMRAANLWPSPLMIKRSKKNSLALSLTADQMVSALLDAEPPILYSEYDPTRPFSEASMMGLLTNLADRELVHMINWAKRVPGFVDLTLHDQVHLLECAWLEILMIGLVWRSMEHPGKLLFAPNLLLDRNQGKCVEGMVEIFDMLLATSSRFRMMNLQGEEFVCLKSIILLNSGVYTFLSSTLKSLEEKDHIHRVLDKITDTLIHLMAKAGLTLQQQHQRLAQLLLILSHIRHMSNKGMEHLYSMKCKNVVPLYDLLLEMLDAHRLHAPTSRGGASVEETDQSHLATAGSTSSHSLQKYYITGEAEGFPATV
Nature of the assay: ERα coactivator recruitment enhancers – biochemical, TR-FRET, ERα LBD, dose response (AID 737). (Time-resolved FRET reads energy transfer from a long-lived donor to a nearby acceptor.)

For assay [2], the target named is Potassium voltage-gated channel subfamily KQT member 2 (Rattus norvegicus, UniProt O88943, W236L). In words: potentiation of rat KCNQ2 current – cell-based, automated electrophysiology, mechanism study for KCNQ2 potentiator project, dose response (AID 2603). It counts as functional.
For assay [3], the target named is Galanin receptor type 2 (Homo sapiens, UniProt O43603). Nature of the assay: Dose Response cell-based high-throughput screening assay to identify antagonists of galanin receptor 2 (GALR2). [Related pubchem assays: 828, 866 ]. Type of assay: functional.
The test system of assay [4] is INS1. In words: INS-1E survival protection against cytokine death – cell-based, luminescence, retest, dose response (AID 449756).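 Note: cell death triggered by IL-1 beta plus TNF-alpha plus IFN-gamma mixture; protective hits raise ATP signal compared with cytokine alone wells.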 It counts as functional. As to conditions: Rattus norvegicus.
The nature of assay [5]: M. tuberculosis H37Rv growth inhibitors, H37Rv strain (AID 1626). Type of assay: functional.
Assay [6] addresses T2, Tyrosine-protein phosphatase non-receptor type 7 (Homo sapiens, UniProt P35236).
T2 sequence (P35236 whole entry): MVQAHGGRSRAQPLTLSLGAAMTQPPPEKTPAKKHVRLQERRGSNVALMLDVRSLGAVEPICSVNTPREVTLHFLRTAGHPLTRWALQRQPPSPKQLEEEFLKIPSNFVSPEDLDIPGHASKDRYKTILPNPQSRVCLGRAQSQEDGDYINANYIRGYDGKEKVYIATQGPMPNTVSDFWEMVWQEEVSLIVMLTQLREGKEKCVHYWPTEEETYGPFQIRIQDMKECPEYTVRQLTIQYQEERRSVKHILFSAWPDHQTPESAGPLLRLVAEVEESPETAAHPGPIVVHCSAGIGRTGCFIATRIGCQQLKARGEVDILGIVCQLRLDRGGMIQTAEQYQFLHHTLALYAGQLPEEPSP
In words: HePTP tyrosine phosphatase activity blockers – biochemical, absorbance, leukemia target, primary screen (AID 521). It counts as functional.

A short description of assay [7]: Luminescent dose response cell-based high throughput screening assay for inhibitors of the Janus kinase 2 mutant JAK2V617F. [Related pubchem assays: 1446 (Primary screen.), 1521 (Confirmation assay.), 1486 (Counter screen.)]. It counts as functional. (The purpose of a counterscreen is to sort out artefacts and off-target activity.)
The nature of assay [8]: M. tuberculosis growth inhibition, HTS (AID 449762). Type of assay: functional.
Assay [9] is described as follows: microbe, parasite or virus in culture. Type of assay: functional. As to conditions: Mycobacterium tuberculosis.
Assay [10] has as its target Sphingosine 1-phosphate receptor 2 (Homo sapiens, UniProt O95136). Nature of the assay: Dose Response Cell Based Assay for Agonists of the S1P2 Receptor of Purchased Analogues. [Related pubchem assays: 729, 843, 854, 736 ]. It counts as functional.

The structures appear in SMILES notation. Activity calls are given as the source filed them.

Sequence of Sphingosine 1-phosphate receptor 2 (O95136 whole entry): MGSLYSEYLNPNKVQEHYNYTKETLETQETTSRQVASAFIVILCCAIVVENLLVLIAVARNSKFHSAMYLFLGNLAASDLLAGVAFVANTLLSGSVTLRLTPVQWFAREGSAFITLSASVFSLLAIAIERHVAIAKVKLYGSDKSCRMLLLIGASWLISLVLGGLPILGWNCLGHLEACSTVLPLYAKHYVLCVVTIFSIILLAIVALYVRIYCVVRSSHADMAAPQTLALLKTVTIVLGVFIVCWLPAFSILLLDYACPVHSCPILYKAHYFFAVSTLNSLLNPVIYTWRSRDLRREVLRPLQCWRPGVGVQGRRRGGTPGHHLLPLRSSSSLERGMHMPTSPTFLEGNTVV
Sequence of Galanin receptor type 2 (O43603 whole entry): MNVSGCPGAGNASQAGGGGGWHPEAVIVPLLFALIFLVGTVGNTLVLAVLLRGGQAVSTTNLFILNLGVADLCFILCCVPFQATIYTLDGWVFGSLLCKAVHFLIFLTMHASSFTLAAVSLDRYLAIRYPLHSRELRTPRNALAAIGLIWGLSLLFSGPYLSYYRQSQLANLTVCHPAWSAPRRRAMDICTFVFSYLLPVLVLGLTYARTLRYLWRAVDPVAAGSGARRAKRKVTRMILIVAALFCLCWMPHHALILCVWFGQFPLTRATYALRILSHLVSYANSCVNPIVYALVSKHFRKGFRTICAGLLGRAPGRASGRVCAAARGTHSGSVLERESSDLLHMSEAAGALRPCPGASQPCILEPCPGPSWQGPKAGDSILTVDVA
Sequence of Potassium voltage-gated channel subfamily KQT member 2 (O88943 whole entry W236L): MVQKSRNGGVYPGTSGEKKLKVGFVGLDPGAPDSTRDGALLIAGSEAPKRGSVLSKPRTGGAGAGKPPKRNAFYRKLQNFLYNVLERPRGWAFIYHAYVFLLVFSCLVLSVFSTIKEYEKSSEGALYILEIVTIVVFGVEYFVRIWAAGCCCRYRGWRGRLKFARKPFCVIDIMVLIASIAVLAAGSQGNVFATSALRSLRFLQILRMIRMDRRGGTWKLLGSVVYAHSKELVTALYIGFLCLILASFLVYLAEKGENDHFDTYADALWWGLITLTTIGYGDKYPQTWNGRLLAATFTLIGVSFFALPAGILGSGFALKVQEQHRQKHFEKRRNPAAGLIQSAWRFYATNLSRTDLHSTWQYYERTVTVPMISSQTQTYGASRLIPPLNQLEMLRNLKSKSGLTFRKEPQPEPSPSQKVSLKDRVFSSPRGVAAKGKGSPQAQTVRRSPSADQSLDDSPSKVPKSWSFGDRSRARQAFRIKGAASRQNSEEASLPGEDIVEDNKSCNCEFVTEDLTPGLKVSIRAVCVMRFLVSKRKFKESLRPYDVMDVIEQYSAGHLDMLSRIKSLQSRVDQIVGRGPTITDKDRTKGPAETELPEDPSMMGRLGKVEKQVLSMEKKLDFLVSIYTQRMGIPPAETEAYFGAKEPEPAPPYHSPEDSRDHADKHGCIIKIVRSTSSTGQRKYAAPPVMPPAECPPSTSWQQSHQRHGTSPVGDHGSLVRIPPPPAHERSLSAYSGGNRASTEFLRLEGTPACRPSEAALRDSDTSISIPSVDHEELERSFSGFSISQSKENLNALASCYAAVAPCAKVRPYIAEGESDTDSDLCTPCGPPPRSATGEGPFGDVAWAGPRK

As to `CCc1nnc2sc(-c3ccc(NC(=O)c4ccc5c(c4)OCCO5)cc3)nn12`, in assay [1], the EC50 is recorded as 32.2 µM (not active).
`Cc1nc(C)c(-c2csc(Nc3ccccn3)n2)s1`: the EC50 in assay [2] is 115 µM (active).
As for `CCOC(=O)N1CCN(c2[nH]cnc3c4cc(F)ccc4nc2-3)CC1`, in [3], the IC50 is 45.6 µM (not active). The AC50 in assay [4] was 5.61 µM (active).
With `COc1ccc(NCN2C(=O)CCC2=O)cc1`, in [5], the IC50 was > 100 µM (active).
For `O=c1c2c3c(sc2nc2n1CCC2)CCC3`, the 50% inhibitory concentration (IC50) in assay [6] is > 100 µM (not active).
With `c1ccc2c(CN3CCCCCC3)c[nH]c2c1`, the IC50 in [7] was 0.702 µM (active). In addition, in [4], the half-maximal activity concentration (AC50) is 4.09 µM (active).
Take `COc1cc2c(-c3ccc4[nH]ccc4c3)c(-c3ccc(C#N)cc3)oc(=O)c2cc1OC`: the IC50 in assay [8] is > 100 µM (active). Moreover, the CC50 in [9] was > 40 µM (active).
For the compound `Cc1cc(C(=O)COC(=O)CN2C(=O)C3CCCCC3C2=O)c(C)n1Cc1ccccc1` (stereo unspecified), in assay [10], the EC50 is > 30 µM (not active).

(Values after ChEMBL document CHEMBL1201862, “PubChem BioAssay data set” (2004).)
